From US8541407B2 (ArQule, Inc., priority 2010, dated 2013) come the findings set out here.

Structures can show the parent of a compound that is named as a salt.

Sequence of AKT1 (P31749 whole entry): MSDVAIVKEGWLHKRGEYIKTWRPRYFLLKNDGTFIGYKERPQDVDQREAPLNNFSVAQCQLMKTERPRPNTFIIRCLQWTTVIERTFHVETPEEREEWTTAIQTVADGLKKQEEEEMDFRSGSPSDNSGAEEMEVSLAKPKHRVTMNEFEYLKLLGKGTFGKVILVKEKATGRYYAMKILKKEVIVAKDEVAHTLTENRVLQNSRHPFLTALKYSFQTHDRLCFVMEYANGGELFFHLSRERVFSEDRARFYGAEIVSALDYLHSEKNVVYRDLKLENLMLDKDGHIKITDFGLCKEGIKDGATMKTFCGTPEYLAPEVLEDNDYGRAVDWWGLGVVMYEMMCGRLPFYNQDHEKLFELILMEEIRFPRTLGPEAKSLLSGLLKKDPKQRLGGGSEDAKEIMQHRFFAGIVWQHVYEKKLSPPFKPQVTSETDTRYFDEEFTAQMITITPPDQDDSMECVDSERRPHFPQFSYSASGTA

This assay concerns the target AKT1 (Homo sapiens (Human), UniProt P31749). The assay can be described thus: Inactive Akt Alpha Screen Assay. Conditions: non *labeled: Akt Alpha Screen assay; read-out: AKT1 biochemical assay, IC50. How it is done:
AKT1 activity was assayed using the GSK3-derived biotinylated peptide substrate, crosstide (biotin-[…]), and AlphaScreen™ (Amplified Luminescent Proximity Homogeneous Assay) technology. AKT1 activation was achieved by the addition of the activating kinases PDK1 and MAPKAPK2, lipid vesicles, and ATP. The extent of peptide phosphorylation was determined using a phospho-AKT substrate antibody and acceptor beads conjugated to Protein A and donor beads conjugated to streptavidin that bind to the biotin on the peptide. Excitation of the donor beads converted ambient oxygen to excited singlet oxygen which, when in close proximity to acceptor beads, reacted with acceptor beads resulting in signal amplification. […] The plates were incubated for 30 minutes at room temperature, and then stopped in the dark by the addition of 10 μL stop/detection mixture prepared in assay buffer containing EDTA, AlphaScreen™ Streptavidin Donor and Protein A Acceptor beads, and phospho-AKT substrate antibody for final concentrations of 10 mM EDTA, 500 ng/well of both AlphaScreen™ Streptavidin Donor beads and Protein A Acceptor beads, and phospho-AKT substrate antibody at a final dilution of 1:350. Assay plates were incubated for 90 minutes at room temperature in the dark, and the plates were read on a Perkin Elmer Envision Multilabel plate reader (excitation wavelength: […], emission wavelength: 570 nm). […] Envision Instrument Settings: • Instrument: Perkin Elmer Envision • Plate: 96 well • Program Name: • Excitation: Ex Top • Mirror: General Dual—Slot 2 • Excitation Filter: CFP430 Ex.
Usually IC50 stands for the midpoint of a concentration-inhibition curve. On to `O=C1CCCN1CCCNCc1ccc(-c2nnc3n2-c2cccnc2Nc2ccccc2-3)cc1` [Example 78, 1-(3-((4-(9H-benzo[f]pyrido[2,3-b][1,2,4]triazolo[4,3-d][1,4]diazepin-3-yl)benzyl)amino)propyl)pyrrolidin-2-one], for which the IC50 is 4400 nM.

Regarding `O=S(=O)(NC1CCN(Cc2ccc(-c3nnc4n3-c3cccnc3Nc3ccccc3-4)cc2)CC1)C1CC1` [Example 149, N-(1-(4-(9H-benzo[f]pyrido[2,3-b][1,2,4]triazolo[4,3-d][1,4]diazepin-3-yl)benzyl)piperidin-4-yl)cyclopropanesulfonamide], the IC50 stood at 5300 nM. In the case of `O=C(Nc1ccc(-c2nnc3n2-c2cccnc2Nc2ccccc2-3)cc1)C1CCC1` [Example 57, N-(4-(9H-benzo[f]pyrido[2,3-b][1,2,4]triazolo[4,3-d][1,4]diazepin-3-yl)phenyl)cyclobutanecarboxamide], the IC50 turned out to be 700 nM. With `Cn1cnc(S(=O)(=O)NCc2ccc(-c3nnc4n3-c3cccnc3Nc3ccccc3-4)cc2)c1` [Example 103, N-(4-(9H-benzo[f]pyrido[2,3-b][1,2,4]triazolo[4,3-d][1,4]diazepin-3-yl)benzyl)-1-methyl-1H-imidazole-4-sulfonamide] the figure was 240 nM.

With `COc1ccc(S(=O)(=O)NCCc2ccc(-c3nnc4n3-c3cccnc3Nc3ccccc3-4)cc2)cc1` [Example 109, N-(4-(9H-benzo[f]pyrido[2,3-b][1,2,4]triazolo[4,3-d][1,4]diazepin-3-yl)phenethyl)-4-methoxybenzenesulfonamide], the half-maximal inhibitory concentration (IC50) was determined as 9100 nM. Next, `COc1ccc(NC(=O)NC2CCN(Cc3ccc(-c4nnc5n4-c4cccnc4Nc4ccccc4-5)cc3)CC2)cc1Cl` [Example 172, 1-(1-(4-(9H-benzo[f]pyrido[2,3-b][1,2,4]triazolo[4,3-d][1,4]diazepin-3-yl)benzyl)piperidin-4-yl)-3-(3-chloro-4-methoxyphenyl)urea]: 1200 nM; `O=C(NCc1ccccc1Cl)NC1CCN(Cc2ccc(-c3nnc4n3-c3cccnc3Nc3ccccc3-4)cc2)CC1` [Example 173, 1-(1-(4-(9H-benzo[f]pyrido[2,3-b][1,2,4]triazolo[4,3-d][1,4]diazepin-3-yl)benzyl)piperidin-4-yl)-3-(2-chlorobenzyl)urea]: 910 nM. In the case of `c1ccc(CCNC2(c3ccc(-c4nnc5n4-c4cccnc4Nc4ccccc4-5)cc3)CCC2)cc1` [Example 229, 1-(4-(9H-benzo[f]pyrido[2,3-b][1,2,4]triazolo[4,3-d][1,4]diazepin-3-yl)phenyl)-N-phenethylcyclobutanamine], the IC50 is 3800 nM.

For `CN(CCc1ccccn1)Cc1ccc(-c2nnc3n2-c2cccnc2Nc2ccccc2-3)cc1` [Example 75, N-(4-(9H-benzo[f]pyrido[2,3-b][1,2,4]triazolo[4,3-d][1,4]diazepin-3-yl)benzyl)-N-methyl-2-(pyridin-2-yl)ethanamine], the IC50 was found to be 1100 nM. In the case of `O=C(Nc1ccc(-c2nnc3n2-c2cccnc2Nc2ccccc2-3)cc1)c1ccc(F)c(F)c1` [Example 37, N-(4-(9H-benzo[f]pyrido[2,3-b][1,2,4]triazolo[4,3-d][1,4]diazepin-3-yl)phenyl)-3,4-difluorobenzamide], the concentration for half-maximal inhibition (IC50) amounted to 150 nM. On to `O=C(Nc1ccc(-c2nnc3n2-c2cccnc2Nc2ccccc2-3)cc1)c1ccco1` [Example 50, N-(4-(9H-benzo[f]pyrido[2,3-b][1,2,4]triazolo[4,3-d][1,4]diazepin-3-yl)phenyl)furan-2-carboxamide], for which the half-maximal inhibitory concentration (IC50) was found to be 130 nM.

On to `CC(=O)c1ccc(S(=O)(=O)NC2CCN(Cc3ccc(-c4nnc5n4-c4cccnc4Nc4ccccc4-5)cc3)CC2)cc1` [Example 155, N-(1-(4-(9H-benzo[f]pyrido[2,3-b][1,2,4]triazolo[4,3-d][1,4]diazepin-3-yl)benzyl)piperidin-4-yl)-4-acetylbenzenesulfonamide], for which the concentration for half-maximal inhibition (IC50) worked out at 3400 nM.

In the case of `Cc1noc(C2CCCN(Cc3ccc(-c4nnc5n4-c4cccnc4Nc4ccccc4-5)cc3)C2)n1` (stereo not drawn) [Example 190, 5-(1-(4-(9H-benzo[f]pyrido[2,3-b][1,2,4]triazolo[4,3-d][1,4]diazepin-3-yl)benzyl)piperidin-3-yl)-3-methyl-1,2,4-oxadiazole], the half-maximal inhibitory concentration (IC50) was 410 nM.

Regarding `O=C1NCN(c2ccccc2)C12CCN(Cc1ccc(-c3nnc4n3-c3cccnc3Nc3ccccc3-4)cc1)CC2` [Example 162, 8-(4-(9H-benzo[f]pyrido[2,3-b][1,2,4]triazolo[4,3-d][1,4]diazepin-3-yl)benzyl)-1-phenyl-1,3,8-triazaspiro[4.5]decan-4-one], the IC50 was 950 nM.

As for `COc1ccccc1C(=O)Nc1ccc(-c2nnc3n2-c2cccnc2Nc2ccccc2-3)cc1` [Example 41, N-(4-(9H-benzo[f]pyrido[2,3-b][1,2,4]triazolo[4,3-d][1,4]diazepin-3-yl)phenyl)-2-methoxybenzamide], the 50% inhibitory concentration (IC50) was determined as 520 nM.

For `Nc1ccc(-c2nnc3n2-c2cccnc2Nc2ccccc2-3)cc1` [Example 11, hydrochloride], the IC50 was 730 nM. `O=C(Nc1ccc(-c2nnc3n2-c2cccnc2Nc2ccccc2-3)cc1)c1ccc(-c2ccccc2)cc1` [Example 61, N-(4-(9H-benzo[f]pyrido[2,3-b][1,2,4]triazolo[4,3-d][1,4]diazepin-3-yl)phenyl)-[1,1′-biphenyl]-4-carboxamide]: the IC50 turned out to be 780 nM. With `c1coc(-c2nnc3n2-c2cccnc2Nc2ccccc2-3)c1` [Example 2] the figure was 6300 nM; with `N#Cc1ccc(C(=O)N2CCN(Cc3ccc(-c4nnc5n4-c4cccnc4Nc4ccccc4-5)cc3)CC2)cc1` [Example 139, 4-(4-(4-(9H-benzo[f]pyrido[2,3-b][1,2,4]triazolo[4,3-d][1,4]diazepin-3-yl)benzyl)piperazine-1-carbonyl)benzonitrile], 990 nM; with `NC1(c2ccc(-c3nnc4n3-c3cccnc3Nc3ccccc3-4)cc2)CCCCC1` [Example 217, 1-(4-(9H-benzo[f]pyrido[2,3-b][1,2,4]triazolo[4,3-d][1,4]diazepin-3-yl)phenyl)cyclohexanamine], 500 nM. Next, `CCOC(=O)N1CCC(NCc2ccc(-c3nnc4n3-c3cccnc3Nc3ccccc3-4)cc2)CC1` [Example 89, ethyl 4-((4-(9H-benzo[f]pyrido[2,3-b][1,2,4]triazolo[4,3-d][1,4]diazepin-3-yl)benzyl)amino)piperidine-1-carboxylate]: 2300 nM; `N#Cc1ccc(C(=O)Nc2ccc(-c3nnc4n3-c3cccnc3Nc3ccccc3-4)cc2)cc1` [Example 38, N-(4-(9H-benzo[f]pyrido[2,3-b][1,2,4]triazolo[4,3-d][1,4]diazepin-3-yl)phenyl)-4-cyanobenzamide]: 140 nM; `N#Cc1ccc(C(=O)NC2CCN(Cc3ccc(-c4nnc5n4-c4cccnc4Nc4ccccc4-5)cc3)CC2)cc1` [Example 130, N-(1-(4-(9H-benzo[f]pyrido[2,3-b][1,2,4]triazolo[4,3-d][1,4]diazepin-3-yl)benzyl)piperidin-4-yl)-4-cyanobenzamide]: 1700 nM.

In the case of `CC(C)CCNCc1ccc(-c2nnc3n2-c2cccnc2Nc2ccccc2-3)cc1` [Example 68, N-(4-(9H-benzo[f]pyrido[2,3-b][1,2,4]triazolo[4,3-d][1,4]diazepin-3-yl)benzyl)-3-methylbutan-1-amine], the IC50 was 4400 nM.
